Data published in EP0810221A1 (MITSUBISHI CHEMICAL CORPORATION, priority 1995, dated 1996).

Legend:
[1] = Release of an active compound in blood: incubation in human serum, HPLC; format: in vitro ADME; settings: same procedure
[2] = Acute toxicity test, oral; settings: both sexes, rat, in vivo, orally administered, suspended in 0.5% aqueous CMC-Na, SD male and female rats, observed for seven days
Text: Compounds of the present invention was suspended in 0.5% aqueous solution of CMC-Na and the suspensions were orally administered to SD male and female rats.

[3] = Release of an active compound in blood: incubation in dog serum, HPLC; format: in vitro ADME; settings: same procedure
[4] = Release of an active compound in blood: incubation in rat serum, HPLC; format: in vitro ADME; settings: final concentration 100 µ M, 37°C, 5 minutes
Procedure: (2S,3S)-2-acetoxy-3-((S)-4-methyl-2-phenylsulfonylaminovalerylamino)tetrahydrofuran obtained in Example 88 was dissolved in acetonitrile and the solution was added to rat serum so that its final concentration was adjusted to 100 µ M. The mixture was incubated at 37°C for 5 minutes. The mixture was then added with acetonitrile and centrifuged, and the resulting solution portion was applied to HPLC for analysis. For comparison, solutions obtained by dissolving (3S)-3-((S)-4-methyl-2-phenylsulfonylaminovalerylamino)-2-tetrahydrofuranol obtained in Example 1 and (2S,3S)-2-acetoxy-3-((S)-4-methyl-2-phenylsulfonylaminovalerylamino)tetrahydrofuran obtained in Example 88 in acetonitrile respectively were examined by HPLC.
The HPLC conditions were as follows: Column: Nucleosil 1005 C18, 4.6×250 mm (Nagel) Column temperature: 50°C Mobile phase: CH3CN:H2O:PIC A Low UV (Waters) = 22:78:1 Flow rate: 1 ml/min Detection wavelength: UV 222 nm

[5] = test system: microtubule-binding proteins; settings: after cerebral ischemia; cited from earlier work
[6] = test system: muscular dystrophy hamsters; settings: cited from earlier work
blood platelets = settings: cited from earlier work
[7] = test system: animal model of myocardial infarct; settings: in vivo; cited from earlier work
axon = settings: head injury model using a rat; cited from earlier work

In the case of `CC(=O)O[C@@H]1OCC[C@@H]1NC(=O)[C@H](CC(C)C)NS(=O)(=O)c1ccccc1` [Example 88, (2S,3S)-2-acetoxy-3-((S)-4-methyl-2-phenylsulfonylaminovalerylamino)tetrahydrofuran], the “formation of active form” value [1] is reported as “formations of active form were also observed”, the LD50 at 7 days [2] is reported as < 2000 mg/kg and the “formation of active form” value [3] is reported as “formations of active form were also observed”. The “hydrolyzed and converted into the active form” value [4] was 97%.
For `CC(C)CCNC(=O)[C@H](CC(C)C)NC(=O)[C@H]1O[C@@H]1C(=O)O` [Example E-64-c, E-64-c], the “degradation of microtubule-binding proteins” value [5] is given as “suppressed”.
For `CCOC(=O)[C@H]1O[C@@H]1C(=O)N[C@@H](CC(C)C)C(=O)NCCC(C)C` [Example E-64-d, E-64-d], the life prolongation effect [6] is listed as “life prolongation effect” and the “platelet aggregation caused by thrombin” value (blood platelets) is listed as “suppressed”.
In the case of `CCOC(=O)[C@@H]1O[C@H]1C(=O)NC(CC(C)C)C(=O)N1CCN(Cc2ccc(OC)c(OC)c2OC)CC1.CCOC(=O)[C@@H]1O[C@H]1C(=O)NC(CC(C)C)C(=O)N1CCN(Cc2ccc(OC)c(OC)c2OC)CC1.O=S(=O)(O)O` (stereo partly drawn) [NCO-700], the “efficacy in an animal model of myocardial infarct” value [7] is given as “effective”.
In the case of `CC(=O)N[C@@H](CC(C)C)C(=O)N[C@@H](CC(C)C)C(=O)N[C@H](C=O)CCCNC(=N)N` [leupeptin], the “protective effect on axon” value (axon) is given as “protective effect on axon was observed”.
